# Measurements published in article PMC12530843, “Identification of a New Interesting BAG3 Modulator Able to Disrupt Cancer‐Related Pathways” (Chemmedchem, 2025).
# Experiments:
# [1] = tested on: HeLa cells; assay: Thioflavin T (ThT) protein misfolding staining; assay type: cell-based, human; details: HeLa, 3, 6 and 12 µM, 72 h; p < 0.01 (3 µM), p < 0.001 (6, 12 µM) vs. Ctrl
# Experimental: Protein misfolding was analyzed by using Thioflavin T (ThT, Sigma Aldrich, St. Louis, MO, USA) staining.^[ [39] ^] HeLa cells (4 × 10^3 cells well^−1) were grown in 96‐well plates and allowed to adhere for 24 h. The medium was then replaced, and the cells were treated with compound 2 (3, 6, and 12 µM) for 72 h. The final concentration of DMSO for the tested compound was 0.1%, which is consistent with the percentage of DMSO used in the negative control. After treatments, the culture medium was replaced, cells were washed with PBS and 100 μL well^−1 of ThT was added (final concentration, 20 µM). After incubation at 37 °C for 20 min in the dark, live cells were analyzed by using ZOE Fluorescent Cell Imager microscope (Biorad, Hercules, California, USA). Magnification, 20×. Scale bar: 100 μm (N ≥ 5). Quantitative analyses were performed in end point mode using a PerkinElmer EnSpire multimode plate reader (excitation/emission 450 nm/482 nm).
# [2] = tested on: HeLa cells; assay: Annexin V-FITC/PI apoptosis staining; assay type: cell-based, human; details: 72 h
# Experimental: Apoptosis in HeLa cells was evaluated using Annexin V‐FITC/PI staining. Hela cells (20 × 10^3) were seeded into 24‐well plates and incubated for 72 h with compound 2. The final concentration of DMSO for the tested compound was 0.1%, which was consistent with the percentage of DMSO used in the negative control. After treatments, cells were resuspended in a 100 μL of assay buffer per well, after which 5 μL of Annexin V‐FITC and 1 μL of PI reagents were added. […] The cells were analyzed with a Becton Dickinson FACScan flow cytometer using the Cell Quest software, version 4 (Franklin Lakes, NJ, USA).
# [3] = target: T1, BAG3 (Homo sapiens, UniProt O95817); assay: t-LiP-MS (targeted limited proteolysis-MS) in HeLa cell lysate; assay type: binding; details: SP18 100 µM, subtilisin 30 min
# T1 construct: endogenous in cells; host or cells: HeLa cell lysate
# Experimental: To develop the t‐LiP‐MS experiment, MRM methods were optimized by selecting tryptic peptides for BAG3 (UniProt Accession: O95817) using the Human PeptideAtlas data repository in combination with SRMAtlas for their daughter ion identification. First, the three best transitions for each peptide were selected (obtaining a list of 57 transitions) and tested on a tryptic‐digested HeLa cell lysate, following the protocol of Capuano et al., 2024.^[ [41] ^] For chromatographic separation, 15 µL of peptide mixture samples (dissolved in 10% formic acid (FA) to a final concentration of 2 µg µL^−1) were injected and separated on an Aeris Peptide XB C18 column (50 × 2.1 mm, 3.6 μm, 100 Å, Phenomenex, Torrance, USA) using a gradient from 5% to 95% B in 12 min (A: 0.1% FA in H2O, B: 0.1% FA in CH3CN). QTrap parameters were as follows: curtain gas (CUR) = 30; ion‐spray voltage (IS) = 5500; temperature (TEM) = 250 °C; ion source gas 1 (GS1) = 25; ion source gas 2 (GS2) = 25; declustering potential (DP) = 80; entrance potential (EP) = 15; collision cell exit potential (CXP) = 12. Data acquisition and processing were performed using Analyst software 1.6.2 (AB Sciex, Foster City, CA, USA). At the end of the preliminary experiment, 14 best transitions were selected for the final MRM method.
# For the t‐Lip‐MS experiment, HeLa cell lysate ([…]) was divided into aliquots and incubated for 1 hr either with DMSO (control sample) or SP18 (100 µM in DMSO) at room temperature under shaking (Mini‐Rotator, Biosan). Samples were then first subjected to limited proteolysis with the nonspecific enzyme subtilisin (enzyme‐to‐proteins ratio of 1:1500 w/w) for 30 min, at room temperature and under continuous shaking (500 rpm, Thermomixer, Biosan) and then extensively digested with the specific protease trypsin (enzyme to proteins ratio of 1:100 w/w, overnight, room temperature, 300 RPM).^[ [42] ^] […] Fold change (Fc) (the ratio between the peak area in the treated sample and control sample) was calculated for each peptide, and only those with Fc ≥1.5 and p‐value ≤0.05 were considered protected.^[ [41] ^]
# T1 sequence (O95817 whole entry): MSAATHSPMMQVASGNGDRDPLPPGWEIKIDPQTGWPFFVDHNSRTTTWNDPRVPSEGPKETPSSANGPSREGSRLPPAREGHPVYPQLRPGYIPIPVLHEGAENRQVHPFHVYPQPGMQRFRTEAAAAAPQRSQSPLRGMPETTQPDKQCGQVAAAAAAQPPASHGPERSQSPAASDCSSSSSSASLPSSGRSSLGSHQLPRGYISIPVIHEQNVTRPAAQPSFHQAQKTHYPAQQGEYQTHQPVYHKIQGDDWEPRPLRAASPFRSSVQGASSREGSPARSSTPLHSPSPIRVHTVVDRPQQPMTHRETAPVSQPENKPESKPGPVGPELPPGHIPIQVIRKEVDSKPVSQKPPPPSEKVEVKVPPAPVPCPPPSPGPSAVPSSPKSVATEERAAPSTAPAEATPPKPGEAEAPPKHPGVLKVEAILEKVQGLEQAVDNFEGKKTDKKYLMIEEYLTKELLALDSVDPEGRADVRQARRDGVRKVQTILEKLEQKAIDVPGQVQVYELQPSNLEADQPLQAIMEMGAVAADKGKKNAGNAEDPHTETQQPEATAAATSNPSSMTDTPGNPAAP
SMILES,protein misfolding and aggregate formation (ThT) [1],"cells undergoing apoptosis ([2]; 20 µM, p < 0.05 vs. control) [%]","cells undergoing apoptosis ([2]; 30 µM, p < 0.05 vs. control) [%]","cells undergoing apoptosis ([2]; 50 µM, p < 0.01 vs. control) [%]",Fold change (Fc) of protected BAG3 peptide V [432–445] K ([3]; p value 0.01),Fold change (Fc) of protected BAG3 peptide E [461–473] R ([3]; p value 0.02),Fold change (Fc) of protected BAG3 peptide T [231–249] K ([3]; p value 0.04)
"O=C(OCc1cn(Cc2ccc3c(c2)C(=O)c2ccccc2C3=O)nn1)c1cccc([N+](=O)[O-])c1 [Compound 2, (1‐((9,10‐Dioxo‐9,10‐dihydroanthracen‐2‐yl)methyl)‐1H‐1,2,3‐triazol‐4‐yl)methyl 3‐nitrobenzoate]",significant induction of protein misfolding and aggregate formation,21.6 ± 1.14,28.0 ± 3.41,40.2 ± 2.11,,,
O=C(OCc1cn(Cc2ccc(C(=O)c3ccccc3)cc2)nn1)c1cccc([N+](=O)[O-])c1 [SP18],,,,,1.74,1.67,1.68
